What was measured:
mu (MOP) (h) = mu (MOP) (h) (Homo sapiens, UniProt P35372); experiment: Eurofins panel: mu (MOP) (h) (agonist radioligand); settings: compound concentration 1.0E-05 M
M3 (h) = M3 (h) (Homo sapiens, UniProt P20309); experiment: biochemical
5-HT3 (h) = 5-HT3 (h) (Homo sapiens, UniProt P46098); settings: 1.0E-05 M; 5-HT3 (h) (antagonist radioligand)
H1 (h) = H1 (h) (Homo sapiens, UniProt P35367); experiment: biochemical
D3 (h) = D3 (h) (Homo sapiens, UniProt P35462); experiment: D3 (h) (antagonist radioligand), Eurofins assay 48
N neuronal alpha7 (h) = N neuronal alpha7 (h) (Homo sapiens, UniProt P36544); experiment: Eurofins panel: N neuronal alpha7 (h) (antagonist radioligand); settings: compound concentration 1.0E-05 M
[1] = system: Ca2+ channel (L, verapamil site) (phenylalkylamine); experiment: Eurofins panel: Ca2+ channel (L, verapamil site) (phenylalkylamine) (antagonist radioligand); type: binding; settings: 1.0E-05 M
alpha2C (h) = alpha2C (h) (Homo sapiens, UniProt P18825); settings: 1.0E-05 M; alpha2C (h) (antagonist radioligand)
CYP2C19 = CYP2C19 (Homo sapiens, UniProt P33261); experiment: in vitro; settings: human liver microsomes, probe omeprazole
5-HT2C (h) = molecular target: T1, 5-HT2C (h) (Homo sapiens, UniProt P28335); experiment: Eurofins panel: 5-HT2C (h) (agonist radioligand); type: binding; settings: 1.0E-05 M; 5-HT2C (h) (agonist radioligand)
T1 construct: purchased Eurofins (contract screening, CNS SafetyScreen panel)
T1 sequence (P28335 33-458): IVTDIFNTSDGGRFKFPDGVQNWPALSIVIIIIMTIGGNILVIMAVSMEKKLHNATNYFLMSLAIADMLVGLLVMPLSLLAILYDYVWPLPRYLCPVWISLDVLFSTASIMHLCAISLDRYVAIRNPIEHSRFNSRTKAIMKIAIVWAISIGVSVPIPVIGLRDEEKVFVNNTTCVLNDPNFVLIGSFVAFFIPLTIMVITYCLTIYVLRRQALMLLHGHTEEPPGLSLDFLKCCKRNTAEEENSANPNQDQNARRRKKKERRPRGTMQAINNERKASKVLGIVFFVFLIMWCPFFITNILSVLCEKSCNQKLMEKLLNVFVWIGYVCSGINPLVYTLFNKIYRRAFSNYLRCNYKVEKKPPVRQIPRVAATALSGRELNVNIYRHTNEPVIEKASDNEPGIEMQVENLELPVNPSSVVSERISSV

human recombinant MAO-B = molecular target: T2, human recombinant MAO-B (Homo sapiens, UniProt P27338); experiment: Eurofins IC50 determination at human recombinant MAO-B; type: binding
T2 construct: purchased Eurofins (contract assay)
T2 sequence (P27338 whole entry): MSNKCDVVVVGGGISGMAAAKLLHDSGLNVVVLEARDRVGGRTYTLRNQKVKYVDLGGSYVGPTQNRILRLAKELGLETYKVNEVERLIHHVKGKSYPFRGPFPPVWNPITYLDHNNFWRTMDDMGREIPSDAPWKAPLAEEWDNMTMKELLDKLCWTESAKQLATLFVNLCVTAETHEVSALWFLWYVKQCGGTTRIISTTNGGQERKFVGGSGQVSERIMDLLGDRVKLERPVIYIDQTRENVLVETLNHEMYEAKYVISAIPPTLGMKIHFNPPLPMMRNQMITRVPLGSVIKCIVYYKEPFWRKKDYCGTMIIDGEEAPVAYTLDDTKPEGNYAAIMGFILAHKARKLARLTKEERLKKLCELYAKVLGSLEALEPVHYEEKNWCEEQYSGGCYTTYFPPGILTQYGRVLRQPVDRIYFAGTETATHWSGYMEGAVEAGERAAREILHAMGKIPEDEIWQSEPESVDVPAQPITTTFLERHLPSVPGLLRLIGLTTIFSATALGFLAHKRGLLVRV

CB2 (h) = CB2 (h) (Homo sapiens, UniProt P34972); experiment: CB2 (h) (agonist radioligand), Eurofins assay 37
Chain of CB2 (h) (P34972 whole entry): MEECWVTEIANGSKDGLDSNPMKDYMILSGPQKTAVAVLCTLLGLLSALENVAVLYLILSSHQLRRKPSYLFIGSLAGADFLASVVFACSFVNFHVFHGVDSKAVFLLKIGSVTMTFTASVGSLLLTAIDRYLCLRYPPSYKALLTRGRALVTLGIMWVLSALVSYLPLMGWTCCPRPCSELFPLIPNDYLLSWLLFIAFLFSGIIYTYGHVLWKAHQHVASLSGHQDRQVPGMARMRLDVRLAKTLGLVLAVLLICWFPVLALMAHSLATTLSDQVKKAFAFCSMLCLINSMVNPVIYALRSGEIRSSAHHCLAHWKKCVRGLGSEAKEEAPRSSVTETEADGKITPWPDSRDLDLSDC

AMPA = experiment: Eurofins panel: AMPA (agonist radioligand); type: binding; settings: 1.0E-05 M; AMPA (agonist radioligand)
[2] = molecular target: human monoamine oxidase-B (MAO-B) (Homo sapiens, UniProt P27338)
Chain of human monoamine oxidase-B (MAO-B) (P27338 whole entry): as the sequence (P27338 whole entry) above

A1 (h) = A1 (h) (Homo sapiens, UniProt P30542); settings: 1.0E-05 M; A1 (h) (antagonist radioligand)
Chain of A1 (h) (P30542 whole entry): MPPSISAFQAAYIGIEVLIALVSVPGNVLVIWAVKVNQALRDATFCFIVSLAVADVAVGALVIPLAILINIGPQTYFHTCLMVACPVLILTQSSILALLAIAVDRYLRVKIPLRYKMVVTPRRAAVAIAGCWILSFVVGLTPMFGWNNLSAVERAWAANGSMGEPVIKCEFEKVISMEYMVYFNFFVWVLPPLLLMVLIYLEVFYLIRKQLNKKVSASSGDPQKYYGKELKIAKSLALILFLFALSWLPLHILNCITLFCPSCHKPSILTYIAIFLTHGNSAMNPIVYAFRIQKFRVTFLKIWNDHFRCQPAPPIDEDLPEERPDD

V1a (h) = V1a (h) (Homo sapiens, UniProt P37288); settings: compound concentration 1.0E-05 M
Chain of V1a (h) (P37288 whole entry): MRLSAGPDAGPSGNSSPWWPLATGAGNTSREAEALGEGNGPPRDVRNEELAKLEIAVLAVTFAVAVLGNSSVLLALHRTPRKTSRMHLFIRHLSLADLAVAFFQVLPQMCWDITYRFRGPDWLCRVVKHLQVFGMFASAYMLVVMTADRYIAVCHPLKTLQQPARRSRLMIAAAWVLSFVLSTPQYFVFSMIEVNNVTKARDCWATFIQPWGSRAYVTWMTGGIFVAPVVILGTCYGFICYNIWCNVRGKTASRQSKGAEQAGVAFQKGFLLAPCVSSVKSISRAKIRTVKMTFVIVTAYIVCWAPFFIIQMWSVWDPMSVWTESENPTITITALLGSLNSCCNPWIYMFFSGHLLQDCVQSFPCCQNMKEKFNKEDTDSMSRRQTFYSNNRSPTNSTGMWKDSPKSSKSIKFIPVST

cathepsin L (h) = molecular target: T3, cathepsin L (h) (Homo sapiens, UniProt P07711); experiment: Eurofins panel: cathepsin L (h) enzymatic activity; type: biochemical; settings: 1.0E-05 M; cathepsin L (h)
T3 construct: Eurofins (panel run by the vendor)
T3 sequence (P07711 114-333): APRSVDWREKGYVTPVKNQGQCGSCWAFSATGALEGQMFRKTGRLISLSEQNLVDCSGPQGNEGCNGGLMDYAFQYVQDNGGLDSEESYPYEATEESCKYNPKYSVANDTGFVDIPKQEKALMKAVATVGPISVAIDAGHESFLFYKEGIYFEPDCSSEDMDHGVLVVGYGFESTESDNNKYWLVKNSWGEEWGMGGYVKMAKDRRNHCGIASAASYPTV

acetylcholinesterase (h) = acetylcholinesterase (h) (Homo sapiens, UniProt P22303)
5-HT2A (h) = molecular target: T4, 5-HT2A (h) (Homo sapiens, UniProt P28223); experiment: Eurofins panel: 5-HT2A (h) (agonist radioligand); type: binding; settings: 1.0E-05 M; 5-HT2A (h) (agonist radioligand)
T4 construct: purchased Eurofins (contract screening, CNS SafetyScreen panel)

CYP1A2 = CYP1A2 (Homo sapiens, UniProt P05177); experiment: in vitro; settings: human liver microsomes, probe tacrine
Chain of CYP1A2 (P05177 whole entry): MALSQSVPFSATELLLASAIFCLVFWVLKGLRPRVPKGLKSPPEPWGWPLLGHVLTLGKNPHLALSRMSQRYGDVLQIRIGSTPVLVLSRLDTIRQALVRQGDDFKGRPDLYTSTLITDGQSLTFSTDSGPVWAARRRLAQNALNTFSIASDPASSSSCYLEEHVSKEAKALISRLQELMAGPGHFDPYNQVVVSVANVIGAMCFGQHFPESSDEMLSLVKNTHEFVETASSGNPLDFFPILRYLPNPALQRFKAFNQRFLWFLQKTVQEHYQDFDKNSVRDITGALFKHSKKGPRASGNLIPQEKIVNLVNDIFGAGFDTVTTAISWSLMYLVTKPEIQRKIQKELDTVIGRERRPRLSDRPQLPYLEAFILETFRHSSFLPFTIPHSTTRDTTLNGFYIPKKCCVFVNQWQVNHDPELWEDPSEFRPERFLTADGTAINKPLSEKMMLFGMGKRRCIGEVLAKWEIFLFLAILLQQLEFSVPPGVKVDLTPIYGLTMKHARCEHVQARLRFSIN

A2A (h) = A2A (h) (Homo sapiens, UniProt P29274); settings: 1.0E-05 M; A2A (h) (agonist radioligand)
Chain of A2A (h) (P29274 whole entry): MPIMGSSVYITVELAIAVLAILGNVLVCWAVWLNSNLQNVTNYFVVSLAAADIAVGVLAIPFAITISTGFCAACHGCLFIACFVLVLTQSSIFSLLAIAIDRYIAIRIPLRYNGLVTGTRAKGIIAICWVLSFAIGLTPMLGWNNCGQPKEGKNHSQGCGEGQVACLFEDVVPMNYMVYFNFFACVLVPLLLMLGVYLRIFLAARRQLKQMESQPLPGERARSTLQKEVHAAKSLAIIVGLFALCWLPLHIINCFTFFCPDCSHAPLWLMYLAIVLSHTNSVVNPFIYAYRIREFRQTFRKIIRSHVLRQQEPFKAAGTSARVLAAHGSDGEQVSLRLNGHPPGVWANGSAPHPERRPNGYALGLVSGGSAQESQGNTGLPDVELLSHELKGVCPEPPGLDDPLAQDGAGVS

5-HT1A (h) = 5-HT1A (h) (Homo sapiens, UniProt P08908); settings: 1.0E-05 M; 5-HT1A (h) (agonist radioligand)
kainate = kainate (agonist radioligand), Eurofins assay 65; settings: Specific binding; 1.0E-05 M
D1 (h) = D1 (h) (Homo sapiens, UniProt P21728); experiment: biochemical
GABA transaminase = GABA transaminase (Rattus norvegicus, UniProt P50554); experiment: GABA transaminase, Eurofins assay 461; type: biochemical; settings: Enzymatic activity; 1.0E-05 M
Chain of GABA transaminase (P50554 28-500): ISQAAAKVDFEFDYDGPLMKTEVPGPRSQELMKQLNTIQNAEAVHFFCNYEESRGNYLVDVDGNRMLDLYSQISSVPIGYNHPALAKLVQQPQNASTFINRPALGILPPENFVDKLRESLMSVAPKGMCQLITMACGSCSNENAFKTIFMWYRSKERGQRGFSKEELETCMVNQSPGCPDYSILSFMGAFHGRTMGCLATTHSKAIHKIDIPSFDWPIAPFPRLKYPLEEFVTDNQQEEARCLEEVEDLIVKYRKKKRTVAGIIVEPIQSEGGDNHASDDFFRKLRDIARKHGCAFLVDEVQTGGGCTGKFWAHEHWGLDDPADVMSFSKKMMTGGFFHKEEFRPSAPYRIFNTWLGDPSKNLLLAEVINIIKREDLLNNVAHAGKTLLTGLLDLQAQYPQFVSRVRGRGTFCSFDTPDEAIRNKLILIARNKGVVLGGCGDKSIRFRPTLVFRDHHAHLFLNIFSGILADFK

PDE4D2 (h) = molecular target: T5, PDE4D2 (h) (Homo sapiens, UniProt Q08499); experiment: Eurofins panel: PDE4D2 (h); type: biochemical; settings: compound concentration 1.0E-05 M
T5 construct: purchased Eurofins (CNS SafetyScreen panel, contract assay)

delta (DOP) (h) = delta (DOP) (h) (Homo sapiens, UniProt P41143); experiment: biochemical
Chain of delta (DOP) (h) (P41143 whole entry): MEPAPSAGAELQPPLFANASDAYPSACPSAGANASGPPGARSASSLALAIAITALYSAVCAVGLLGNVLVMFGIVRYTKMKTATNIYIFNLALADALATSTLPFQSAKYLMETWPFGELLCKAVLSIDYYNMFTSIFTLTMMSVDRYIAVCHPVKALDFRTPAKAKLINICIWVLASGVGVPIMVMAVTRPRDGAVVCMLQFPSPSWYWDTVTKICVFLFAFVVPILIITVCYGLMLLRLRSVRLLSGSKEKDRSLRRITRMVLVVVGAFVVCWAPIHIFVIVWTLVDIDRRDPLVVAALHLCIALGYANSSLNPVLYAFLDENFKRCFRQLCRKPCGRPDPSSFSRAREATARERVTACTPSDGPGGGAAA

IRK (h) (InsR) = IRK (h) (InsR) (Homo sapiens, UniProt P06213); experiment: biochemical
Y1 (h) = Y1 (h) (Homo sapiens, UniProt P25929); settings: compound concentration 1.0E-05 M
alpha1B (h) = alpha1B (h) (Homo sapiens, UniProt P35368); settings: 1.0E-05 M; alpha1B (h) (antagonist radioligand)
Chain of alpha1B (h) (P35368 whole entry): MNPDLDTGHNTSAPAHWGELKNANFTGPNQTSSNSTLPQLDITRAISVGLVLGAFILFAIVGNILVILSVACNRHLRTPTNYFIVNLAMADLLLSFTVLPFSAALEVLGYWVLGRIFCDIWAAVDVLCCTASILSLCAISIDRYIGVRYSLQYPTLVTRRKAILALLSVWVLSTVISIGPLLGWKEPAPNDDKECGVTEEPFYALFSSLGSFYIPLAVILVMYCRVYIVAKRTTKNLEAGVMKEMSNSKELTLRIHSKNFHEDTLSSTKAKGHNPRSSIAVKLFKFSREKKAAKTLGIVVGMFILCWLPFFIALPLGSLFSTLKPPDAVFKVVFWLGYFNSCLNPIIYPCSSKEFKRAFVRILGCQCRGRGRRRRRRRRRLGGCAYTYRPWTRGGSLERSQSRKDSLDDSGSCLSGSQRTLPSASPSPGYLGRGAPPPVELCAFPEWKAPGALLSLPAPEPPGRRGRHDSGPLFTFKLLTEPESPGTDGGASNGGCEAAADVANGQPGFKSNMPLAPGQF

Chain of 5-HT3 (h) (P46098 24-478): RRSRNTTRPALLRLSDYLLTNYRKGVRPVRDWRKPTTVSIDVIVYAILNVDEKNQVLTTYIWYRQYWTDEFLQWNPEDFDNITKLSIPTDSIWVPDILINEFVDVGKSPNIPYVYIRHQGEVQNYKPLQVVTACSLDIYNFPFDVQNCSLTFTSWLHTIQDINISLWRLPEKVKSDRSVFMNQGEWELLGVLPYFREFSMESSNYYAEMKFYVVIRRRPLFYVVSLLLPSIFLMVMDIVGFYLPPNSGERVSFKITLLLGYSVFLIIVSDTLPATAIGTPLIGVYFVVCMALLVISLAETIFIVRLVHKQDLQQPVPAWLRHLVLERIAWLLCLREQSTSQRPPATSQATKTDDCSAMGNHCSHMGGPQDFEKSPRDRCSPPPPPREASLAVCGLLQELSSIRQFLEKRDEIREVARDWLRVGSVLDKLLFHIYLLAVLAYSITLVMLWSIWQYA

Fc1nc(N2CCOCC2)ccc1-c1cc2ccccc2[nH]1 [Compound 75, 4-(6-Fluoro-5-(1H-indol-2-yl)pyridin-2-yl)morpholine]
% Inhibition, Specific binding (mu (MOP) (h)): -1.17E+00% | inhibition at 10 µM (M3 (h)): -12.5% | % Inhibition, Specific binding (5-HT3 (h)): 0.4312% | inhibition at 10 µM (H1 (h)): -3.1% | inhibition at 10 µM (D3 (h)): -5.9% | % Inhibition, Specific binding (N neuronal alpha7 (h)): -7.00E+00% | % Inhibition, Specific binding [1]: -2.08E+01% | % Inhibition, Specific binding (alpha2C (h)): 4.876% | inhibition at 10 µM (CYP2C19): -0.914% | % Inhibition, Specific binding (5-HT2C (h)): 5.817% | IC50 (human recombinant MAO-B): 3 µM | inhibition at 10 µM (CB2 (h)): -17.9% | % Inhibition, Specific binding (AMPA): 4.317% | inhibition at human MAO-B (vs deprenyl) [2]: 61% | % Inhibition, Specific binding (A1 (h)): -7.64E+00% | % Inhibition, Specific binding (V1a (h)): -8.82E-01% | % Inhibition, Enzymatic activity (cathepsin L (h)): 15.4729% | % Inhibition, Enzymatic activity (acetylcholinesterase (h)): 1.77% | % Inhibition, Specific binding (5-HT2A (h)): 1.045% | inhibition at 10 µM (CYP1A2): -10.4% | % Inhibition, Specific binding (A2A (h)): 6.474% | % Inhibition, Specific binding (5-HT1A (h)): 11.4159% | % Inhibition (kainate): 7.0556% | inhibition at 10 µM (D1 (h)): -11.8% | inhibition at 10 µM (GABA transaminase): -0.726% | % Inhibition, Enzymatic activity (PDE4D2 (h)): -7.60E+00% | inhibition at 10 µM (delta (DOP) (h)): -13.7% | inhibition at 10 µM (IRK (h) (InsR)): -5.12% | % Inhibition, Specific binding (Y1 (h)): -2.40E+01% | % Inhibition, Specific binding (alpha1B (h)): -4.91E+00%
